Molecules are shown by their SMILES.

The target in one assay is recombinant human Nav1.7 (Homo sapiens (Human), UniProt Q15858). Kind of assay: FRET-based membrane potential assay, recombinant human sodium channel Nav1.7. The format is cell-based. The settings on record: FRET-Membrane Potential Nav1.7 IC50. In outline: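 Channel activation used veratridine at its EC80, set by a dilution curve each experiment, together with Leiurus scorpion venom, added 3 min after compound. Membrane-potential ratio signals from FLIPR Tetra in HEPES-buffered HBSS were fitted to a four-parameter Hill equation for percent inhibition and IC50.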
recombinant human Nav1.7, sequence (Q15858 whole entry): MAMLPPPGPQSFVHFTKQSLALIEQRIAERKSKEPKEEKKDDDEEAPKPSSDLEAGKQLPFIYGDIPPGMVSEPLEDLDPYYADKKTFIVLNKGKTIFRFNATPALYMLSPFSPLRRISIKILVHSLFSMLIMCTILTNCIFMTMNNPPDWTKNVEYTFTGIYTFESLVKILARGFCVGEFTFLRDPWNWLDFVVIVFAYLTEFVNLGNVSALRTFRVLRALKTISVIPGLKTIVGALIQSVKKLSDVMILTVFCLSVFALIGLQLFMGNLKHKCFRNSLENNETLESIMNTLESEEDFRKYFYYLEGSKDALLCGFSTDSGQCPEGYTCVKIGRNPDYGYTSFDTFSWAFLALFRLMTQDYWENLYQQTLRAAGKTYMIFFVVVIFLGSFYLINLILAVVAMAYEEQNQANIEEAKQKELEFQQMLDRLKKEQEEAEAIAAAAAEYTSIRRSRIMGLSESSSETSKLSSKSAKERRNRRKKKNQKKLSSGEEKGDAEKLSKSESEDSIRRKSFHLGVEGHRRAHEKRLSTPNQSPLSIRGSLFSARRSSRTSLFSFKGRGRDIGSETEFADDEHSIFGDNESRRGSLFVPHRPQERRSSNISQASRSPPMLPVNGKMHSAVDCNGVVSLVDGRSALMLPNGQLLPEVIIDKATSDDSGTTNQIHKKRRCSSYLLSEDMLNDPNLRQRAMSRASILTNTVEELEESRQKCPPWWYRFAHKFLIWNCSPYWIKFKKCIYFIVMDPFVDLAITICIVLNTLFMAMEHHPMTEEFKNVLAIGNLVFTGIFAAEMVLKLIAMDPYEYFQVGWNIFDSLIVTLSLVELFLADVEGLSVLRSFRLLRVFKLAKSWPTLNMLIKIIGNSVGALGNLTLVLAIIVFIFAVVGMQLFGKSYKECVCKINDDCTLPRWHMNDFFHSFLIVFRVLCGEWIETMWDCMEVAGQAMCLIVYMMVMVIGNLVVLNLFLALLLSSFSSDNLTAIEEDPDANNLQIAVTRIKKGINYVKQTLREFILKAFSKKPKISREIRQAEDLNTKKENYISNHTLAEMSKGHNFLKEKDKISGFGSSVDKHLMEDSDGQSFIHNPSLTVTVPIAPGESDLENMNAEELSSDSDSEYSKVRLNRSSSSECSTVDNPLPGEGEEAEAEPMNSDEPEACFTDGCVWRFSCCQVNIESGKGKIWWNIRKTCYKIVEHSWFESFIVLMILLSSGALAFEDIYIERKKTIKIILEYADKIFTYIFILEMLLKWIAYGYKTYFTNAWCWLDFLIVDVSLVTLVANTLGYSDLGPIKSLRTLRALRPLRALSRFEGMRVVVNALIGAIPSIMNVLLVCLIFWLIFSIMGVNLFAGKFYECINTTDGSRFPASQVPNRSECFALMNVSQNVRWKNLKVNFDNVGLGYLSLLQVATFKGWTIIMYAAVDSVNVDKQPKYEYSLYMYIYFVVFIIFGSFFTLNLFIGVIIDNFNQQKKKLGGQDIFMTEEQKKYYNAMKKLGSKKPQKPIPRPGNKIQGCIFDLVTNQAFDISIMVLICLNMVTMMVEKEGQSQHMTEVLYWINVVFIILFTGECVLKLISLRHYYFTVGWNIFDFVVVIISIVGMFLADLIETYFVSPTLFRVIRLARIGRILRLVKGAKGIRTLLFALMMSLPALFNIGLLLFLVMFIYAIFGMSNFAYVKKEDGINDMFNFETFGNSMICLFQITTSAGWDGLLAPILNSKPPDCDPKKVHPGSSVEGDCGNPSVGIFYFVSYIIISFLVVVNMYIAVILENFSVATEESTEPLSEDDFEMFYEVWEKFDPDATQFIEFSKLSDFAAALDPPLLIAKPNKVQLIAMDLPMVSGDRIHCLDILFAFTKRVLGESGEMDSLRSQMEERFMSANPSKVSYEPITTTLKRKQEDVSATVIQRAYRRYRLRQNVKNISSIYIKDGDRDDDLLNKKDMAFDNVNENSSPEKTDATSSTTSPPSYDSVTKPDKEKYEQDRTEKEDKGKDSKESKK
As to `O=C(N[C@H]1C[C@H](O)C1)c1ccc2cc(Oc3ccc(C(F)(F)F)cn3)ccc2n1` [Example 302, N-(trans-3-hydroxycyclobutyl)-6-{[5-(trifluoromethyl)pyridin-2-yl]oxy}quinoline-2-carboxamide], the IC50 (as a rule, the concentration needed to halve the response being measured) was found to be 3.49 µM.

Still in this assay, the particulars now being: HEK293 cells stably expressing recombinant human Nav1.7; veratridine + scorpion venom depolarization; read-out: FRET-Membrane Potential Nav1.7 IC50.
In the case of `O=C(c1ccc2cc(Oc3ccc(C(F)(F)F)cn3)ccc2n1)N1CCN(C2CCCCC2)CC1` [Example 291, (4-cyclohexylpiperazin-1-yl)(6-{[5-(trifluoromethyl)pyridin-2-yl]oxy}quinolin-2-yl)methanone], the IC50 came to 13.7 µM. Turning to `O=C(c1ccc2cc(Oc3ccc(C(F)(F)F)cn3)ccc2n1)N1CC(O)C(F)C1` (stereo not shown) [Example 292, (3-fluoro-4-hydroxypyrrolidin-1-yl)(6-{[5-(trifluoromethyl)pyridin-2-yl]oxy}quinolin-2-yl)methanone], the IC50 amounted to 3.26 µM.

Consider `CC(C)COC(=O)N1CCN(C(=O)c2ccc3cc(Oc4ccc(C(F)(F)F)cn4)ccc3n2)CC1` [Example 293, isobutyl 4-[(6-{[5-(trifluoromethyl)pyridin-2-yl]oxy}quinolin-2-yl)carbonyl]piperazine-1-carboxylate], for which the IC50 worked out at 3.32 µM. The same measure, in the same setting: under `CCN1CCN(C(=O)c2ccc3cc(Oc4ccc(C(F)(F)F)cn4)ccc3n2)CC1` [Example 294, (4-ethylpiperazin-1-yl)(6-{[5-(trifluoromethyl)pyridin-2-yl]oxy}quinolin-2-yl)methanone] stands 1.4 µM. On the same count and under the same terms, under `O=C(c1ccc2cc(Oc3ccc(C(F)(F)F)cn3)ccc2n1)N1CCCCC1` [Example 297, piperidin-1-yl(6-{[5-(trifluoromethyl)pyridin-2-yl]oxy}quinolin-2-yl)methanone] stands 7.99 µM; under `O=C(c1ccc2cc(Oc3ccc(C(F)(F)F)cn3)ccc2n1)N1CCN(CC(F)F)CC1` [Example 298, [4-(2,2-difluoroethyl)piperazin-1-yl](6-{[5-(trifluoromethyl)pyridin-2-yl]oxy}quinolin-2-yl)methanone], 12.3 µM. On the same count and under the same terms, under `O=C(c1ccc2cc(Oc3ccc(C(F)(F)F)cn3)ccc2n1)N1CCN(C(=O)N2CCOCC2)CC1` [Example 299, morpholin-4-yl{4-[(6-{[5-(trifluoromethyl)pyridin-2-yl]oxy}quinolin-2-yl)carbonyl]piperazin-1-yl}methanone] stands greater than 20 µM. On to `O=C(c1ccc2cc(Oc3ccc(C(F)(F)F)cn3)ccc2n1)N1C[C@H](O)C[C@H]1CO` [Example 300, [(2S,4R)-4-hydroxy-2-(hydroxymethyl)pyrrolidin-1-yl](6-{[5-(trifluoromethyl)pyridin-2-yl]oxy}quinolin-2-yl)methanone], for which the concentration for half-maximal inhibition (IC50) is greater than 20 µM.

Regarding `O=C(c1ccc2cc(Oc3ccc(C(F)(F)F)cn3)ccc2n1)N1CC[C@H](O)[C@H]1CO` [Example 304, [(2R,3S)-3-hydroxy-2-(hydroxymethyl)pyrrolidin-1-yl](6-{[5-(trifluoromethyl)pyridin-2-yl]oxy}quinolin-2-yl)methanone], the IC50 is greater than 20 µM. Same read-out and setting: under `O=C(c1ccc2cc(Oc3ccc(C(F)(F)F)cn3)ccc2n1)N1C[C@H](CO)C[C@H](CO)C1` [Example 307, [cis-3,5-bis(hydroxymethyl)piperidin-1-yl](6-{[5-(trifluoromethyl)pyridin-2-yl]oxy}quinolin-2-yl)methanone] stands 14.6 µM; under `O=C(c1ccc2cc(Oc3ccc(C(F)(F)F)cn3)ccc2n1)N1CCN(Cc2ccccn2)CC1` [Example 308, [4-(pyridin-2-ylmethyl)piperazin-1-yl](6-{[5-(trifluoromethyl)pyridin-2-yl]oxy}quinolin-2-yl)methanone], 3.07 µM; under `CC(C)(C)CC(=O)N1CCN(C(=O)c2ccc3cc(Oc4ccc(C(F)(F)F)cn4)ccc3n2)CC1` [Example 309, 3,3-dimethyl-1-{4-[(6-{[5-(trifluoromethyl)pyridin-2-yl]oxy}quinolin-2-yl)carbonyl]piperazin-1-yl}butan-1-one], 3.57 µM. On to `N[C@@H]1CCN(C(=O)c2ccc3cc(Oc4ccc(C(F)(F)F)cn4)ccc3n2)C1` [Example 310, [(3R)-3-aminopyrrolidin-1-yl](6-{[5-(trifluoromethyl)pyridin-2-yl]oxy}quinolin-2-yl)methanone], for which the 50% inhibitory concentration (IC50) turned out to be 0.665 µM. With `O=C(c1ccc2cc(Oc3ccc(C(F)(F)F)cn3)ccc2n1)N1CCCC(F)(F)C1` [Example 312, (3,3-difluoropiperidin-1-yl)(6-{[5-(trifluoromethyl)pyridin-2-yl]oxy}quinolin-2-yl)methanone], the IC50 came to 6.93 µM. The same measure, in the same setting: under `O=C(c1ccc2cc(Oc3ccc(C(F)(F)F)cn3)ccc2n1)N1CCC[C@@]12CC[C@H](O)C2` [Example 313, [(5S,7S)-7-hydroxy-1-azaspiro[4.4]non-1-yl](6-{[5-(trifluoromethyl)pyridin-2-yl]oxy}quinolin-2-yl)methanone] stands 14 µM. The same measure, in the same setting: under `O=C(c1ccc2cc(Oc3ccc(C(F)(F)F)cn3)ccc2n1)N1CCN(Cc2cocn2)CC1` [Example 315, [4-(1,3-oxazol-4-ylmethyl)piperazin-1-yl](6-{[5-(trifluoromethyl)pyridin-2-yl]oxy}quinolin-2-yl)methanone] stands 6.12 µM; under `NS(=O)(=O)CCNC(=O)c1ccc2cc(Oc3ccc(C(F)(F)F)cn3)ccc2n1` [Example 317, N-(2-sulfamoylethyl)-6-{[5-(trifluoromethyl)pyridin-2-yl]oxy}quinoline-2-carboxamide], 3.01 µM; under `O=C(c1ccc2cc(Oc3ccc(C(F)(F)F)cn3)ccc2n1)N1CCC(F)CC1` [Example 318, (4-fluoropiperidin-1-yl)(6-{[5-(trifluoromethyl)pyridin-2-yl]oxy}quinolin-2-yl)methanone], 7.41 µM. For `O=C(c1ccc2cc(Oc3ccc(C(F)(F)F)cn3)ccc2n1)N1CC[C@@H](N2CCCCC2)C1` [Example 319, [(3R)-3-(piperidin-1-yl)pyrrolidin-1-yl](6-{[5-(trifluoromethyl)pyridin-2-yl]oxy}quinolin-2-yl)methanone], the 50% inhibitory concentration (IC50) stood at 0.285 µM.

Regarding `O=C(c1ccc2cc(Oc3nnc(C(F)(F)F)s3)ccc2n1)N1CCNCC1` [Example 320, piperazin-1-yl(6-{[5-(trifluoromethyl)-1,3,4-thiadiazol-2-yl]oxy}quinolin-2-yl)methanone], the IC50 is 17.1 µM. Still for that read-out and setting: under `CC(C)NC(=O)C1CN(C(=O)c2ccc3cc(Oc4ccc(C(F)(F)F)cn4)ccc3n2)CCN1` (stereo not shown) [Example 321, N-isopropyl-4-[(6-{[5-(trifluoromethyl)pyridin-2-yl]oxy}quinolin-2-yl)carbonyl]piperazine-2-carboxamide] stands 8.07 µM; under `CO[C@H]1CN(C(=O)c2ccc3cc(Oc4ccc(C(F)(F)F)cn4)ccc3n2)C[C@H]1OC` [Example 324, [cis-3,4-dimethoxypyrrolidin-1-yl](6-{[5-(trifluoromethyl)pyridin-2-yl]oxy}quinolin-2-yl)methanone], 5.01 µM; under `NC(=O)[C@H]1CCCN(C(=O)c2ccc3cc(Oc4ccc(C(F)(F)F)cn4)ccc3n2)C1` [Example 325, (3S)-1-[(6-{[5-(trifluoromethyl)pyridin-2-yl]oxy}quinolin-2-yl)carbonyl]piperidine-3-carboxamide], 8.58 µM. On the same count and under the same terms, under `O=C(NC1CCOCC1)c1ccc2cc(Oc3ccc(C(F)(F)F)cn3)ccc2n1` [Example 327, N-(tetrahydro-2H-pyran-4-yl)-6-{[5-(trifluoromethyl)pyridin-2-yl]oxy}quinoline-2-carboxamide] stands 0.557 µM; under `N#Cc1ccc(Oc2ccc3nc(C(=O)N4CCNCC4)ccc3c2)nc1` [Example 328, 6-{[2-(piperazin-1-ylcarbonyl)quinolin-6-yl]oxy}nicotinonitrile], greater than 20 µM; under `O=C(c1ccc2cc(Oc3ccc(C(F)(F)F)cn3)ccc2n1)N1CCN2C(=O)OCC2C1` (stereo not shown) [Example 329, 7-[(6-{[5-(trifluoromethyl)pyridin-2-yl]oxy}quinolin-2-yl)carbonyl]hexahydro[1,3]oxazolo[3,4-a]pyrazin-3-one], 9.28 µM.

Staying with this assay, now noted: read-out: FRET-Membrane Potential Nav1.7 IC50.
Consider `O=C(c1ccc2cc(Oc3ncc(C(F)(F)F)cc3Br)ccc2n1)N1CCNCC1` [Example 295, (6-{[3-bromo-5-(trifluoromethyl)pyridin-2-yl]oxy}quinolin-2-yl)(piperazin-1-yl)methanone], for which the IC50 amounted to 3.2 µM. The same measure, in the same setting: under `O=C(c1ccc2cc(Oc3ccc(C(F)(F)F)cn3)ccc2n1)N1CCOCC1` [Example 296, morpholin-4-yl(6-{[5-(trifluoromethyl)pyridin-2-yl]oxy}quinolin-2-yl)methanone] stands 12.4 µM.

On to `O=C(c1ccc2cc(Oc3ccc(C(F)(F)F)cn3)ccc2n1)N1CCN(CCC(F)(F)F)CC1` [Example 311, (6-{[5-(trifluoromethyl)pyridin-2-yl]oxy}quinolin-2-yl)[4-(3,3,3-trifluoropropyl)piperazin-1-yl]methanone], for which the IC50 amounted to 3.11 µM.

Regarding `O=C(c1ccc2cc(Oc3ccc(C(F)(F)F)cn3)ccc2n1)N1CCC(N2CCC2)C1` (stereo not shown) [Example 314, [3-(azetidin-1-yl)pyrrolidin-1-yl](6-{[5-(trifluoromethyl)pyridin-2-yl]oxy}quinolin-2-yl)methanone], the half-maximal inhibitory concentration (IC50) came out at 0.218 µM. On the same count and under the same terms, under `O=C(c1ccc2cc(Oc3ccc(C(F)(F)F)cn3)ccc2n1)N1CCC(N2CCOCC2)C1` (stereo not shown) [Example 316, [3-(morpholin-4-yl)pyrrolidin-1-yl](6-{[5-(trifluoromethyl)pyridin-2-yl]oxy}quinolin-2-yl)methanone] stands 12 µM. On the same count and under the same terms, under `CNC(=O)C1CN(C(=O)c2ccc3cc(Oc4ccc(C(F)(F)F)cn4)ccc3n2)CCN1` (stereo not shown) [Example 322, N-methyl-4-[(6-{[5-(trifluoromethyl)pyridin-2-yl]oxy}quinolin-2-yl)carbonyl]piperazine-2-carboxamide] stands 12 µM; under `O=C(NCCO)c1ccc2cc(Oc3ccc(C(F)(F)F)cn3)ccc2n1` [Example 326, N-(2-hydroxyethyl)-6-{[5-(trifluoromethyl)pyridin-2-yl]oxy}quinoline-2-carboxamide], 3.15 µM.
